Measured values from publication PMC4395004 (Pharmaceutical research, 2013).

Assay: PK study of P-S after topical
Format: in vivo, rat
Conditions: for Tmax: LEW/crlBR, rat, po, 50 mg/kg
[1] = oral gavage P-S 50 mg/kg single dose, blood
[2] = oral gavage P-S 50 mg/kg single dose, muscle
[3] = topical PSH, single dose P-S 50 mg/kg on both hind legs, muscle
[4] = topical PSH, single dose P-S 50 mg/kg, blood
[5] = topical PSH, single dose P-S 50 mg/kg, muscle

Tmax (blood) [h] | Tmax (muscle) [h] | AUC0–24h, blood [1] | Cmax, blood [1] [nmol/g] | AUC0–24h, muscle [2] | Cmax, muscle [2] [nmol/g] | Cmax, muscle [3] [nmol/g] | AUC0–24h, blood [4] | Cmax, blood [4] [nmol/g] | AUC0–24h, muscle [5] | muscle Cmax (topical PSH, muscle) [nmole/g tissue] | Tmax, blood [1] [h] | Tmax, muscle [2] [h] | Tmax, blood [4] [h] | Tmax, muscle [5] [h] | SMILES
8 | 8 | 156 (nmole/g)*h | 13 | 158 (nmole/g)*h | 13 | 2 | 122 (nmole/g)*h | 10 | 18 (nmole/g)*h | ≤ 31 |  |  |  |  | CSc1ccc(/C=C2/C(C)=C(CC(=O)O)c3cc(F)ccc32)cc1 [S.sulfide, sulindac sulfide]
 |  |  | 52 | 764 (nmole/g)*h | 40 | 12 | 400 (nmole/g)*h | 23 | 170 (nmole/g)*h | ≤ 31 | 8 | 8 | 8 | 24 | CC1=C(CC(=O)O)c2cc(F)ccc2/C1=C\c1ccc(S(C)(=O)=O)cc1 [S.sulfone, sulindac sulfone]
2 | 8 | 405 (nmole/g)*h | 33 | 296 (nmole/g)*h | 20 | 31 | 245 (nmole/g)*h | 18 | 399 (nmole/g)*h | ≤ 31 |  |  |  |  | CC1=C(CC(=O)O)c2cc(F)ccc2/C1=C\c1ccc([S+](C)[O-])cc1 (stereo not shown) [Sulindac, sulindac, reference compound]
